Test results published in the SangsterLogP compilation.

| Compound | logP |
| --- | --- |
| Cc1cc(C)nc(NC(=O)c2cccs2)c1 | 2.77 |
| Cc1cc(C)nc(NC(=O)c2cccc(Br)c2)c1 | 4.04 |
| Cc1cc(C)nc(NC(=O)c2cccc(C#N)c2)c1 | 2.88 |
| Cc1cc(C)nc(NC(=O)C(c2ccccc2)c2ccccc2)c1 | 4.77 |
| Cc1cc(C)nc(NC(=O)c2ccccc2)c1 | 3.09 |
| Cc1cc(C)nc(NC(=S)c2ccc(C)o2)c1 | 3.2 |
| Cc1cc(C)nc(NC(=O)c2ccc(C)o2)c1 | 2.75 |
| Cc1cc(C)nc(NC(=O)c2ccc(Br)s2)c1 | 3.74 |
| Cc1cc(C)nc(NC(=O)c2cccc([N+](=O)[O-])c2)c1 | 3.13 |
| Cc1cc(C)nc(NC(=O)c2cc3ccccc3s2)c1 | 4.08 |
| Cc1cc(C)nc(NC(=O)c2ccco2)c1 | 2.25 |
| Cc1cc(C)nc(NC(=O)c2cccc(F)c2)c1 | 3.31 |
| Cc1cc(C)nc(NC(=O)c2cc3ccccc3o2)c1 | 3.54 |
| Cc1cc(C)nc(NC(=O)Cc2ccc(Br)cc2)c1 | 4.07 |
| Cc1cc(C)nc(NC(=O)c2ccc([N+](=O)[O-])o2)c1 | 2.39 |
| CC(=O)Oc1ccccc1C(=O)Nc1cc(C)cc(C)n1 | 2.35 |
| Cc1cc(C)nc(NC(=O)c2cccc(Cl)c2)c1 | 3.88 |
| Cc1cc(C)nc(NC(=O)C(C)c2ccccc2)c1 (configuration not stated) | 3.67 |
| Cc1cc(C)nc(NC(=S)c2ccccc2)c1 | 3.45 |
| Cc1cc(C)nc(NC(=O)c2ccc(Br)o2)c1 | 3.22 |
| Cc1cc(C)nc(NC(=O)c2cccn2C)c1 | 2.42 |
| COc1cccc2cc(C(=O)Nc3cc(C)cc(C)n3)oc12 | 4.27 |
